Laboratory results as given in patent US11034648B2, “Cystobactamide derivatives” (priority 2017, dated 2021).
In brackets after ≈: the same amount, converted by molar mass. Like-named read-outs stand apart in the source and are kept apart here.

Legend:
Type in all cases: cell-based
E. coli ΔtolC = assay: microbe, parasite or virus in culture; settings: Escherichia coli, 16 h
Procedure: (§1) Cystobactamid derivatives synthesized were tested against relevant Gram negative and positive bacteria of clinical interest. Experimental procedures used for the biological characterization of the compounds are the same as previously described in WO 2016/082934.
(§2) Bacterial strains used in susceptibility assays (minimum inhibitory concentration, MIC) were either part of our internal strain collection or purchased from the German Collection of Microorganisms and Cell Cultures (Deutsche Sammlung von Mikroorganismen und Zellkulturen, DSMZ) and the American Type Culture Collection (ATCC). The susceptible E. coli strain (WT) and fluoroquinolone-resistant mutants E. coli WT-3 and WT-III were kindly provided by Prof Dr. P. Heisig, Pharmaceutical Biology and Microbiology, University of Hamburg, Germany. The efflux-deficient strain P. aeruginosa ΔmexAB was kindly provided by Prof Dr. S. Häußler, Institute for Molecular Bacteriology, TWINCORE, Hannover, Germany. All compounds were prepared as DMSO stocks and MIC values were determined in standard microbroth dilution assays in 96-well MTPs as described in Baumann et al., Angew Chem Int Ed Engl. 2014; 53(52):14605-9. In brief, overnight cultures of bacteria were diluted in either tryptic soy broth (TSB: 1.7% peptone casein, 0.3% peptone soymeal, 0.25% glucose, 0.5% NaCl, 0.25% K2HPO4; pH 7.3; S. pneumoniae and E. faecalis) or cation-adjusted Müller-Hinton Broth (BBL™, BD; all other bacteria) and adjusted to 10^4-10^6 cfu/mL. Bacteria were grown in the presence of the derivatives in serial dilution for approx. 16 h at 30-37° C. MIC values were determined and were defined as the antibiotic concentration at which no visual growth of bacteria was observed.

P. aeruginosa ΔmexAB = assay: microbe, parasite or virus in culture; settings: Pseudomonas aeruginosa, 16 h
Procedure: as §1, §2

E. coli WT DSM-1116 = assay: MIC, microbroth dilution susceptibility assay; settings: Escherichia coli, read-out: MIC E. coli WT DSM-1116
Procedure: as §1, §2

P. aeruginosa WT PA14 = assay: MIC, microbroth dilution susceptibility assay; settings: Pseudomonas aeruginosa
Procedure: as §1, §2

S. aureus Newman = assay: MIC, microbroth dilution susceptibility assay; settings: Staphylococcus aureus, NEWMAN, read-out: MIC S. aureus Newman
Procedure: as §1, §2

[1] = read-out: MIC E. coli ΔtolC, small panel, Tables 1a/1b, no visual growth after approx. 16 h
[2] = read-out: MIC P. aeruginosa ΔmexAB, efflux-deficient strain, small panel, Tables 1a/1b
[3] = DSM1116, small panel, Tables 1a/1b, no visual growth after approx. 16 h
[4] = PA14, small panel, Tables 1a/1b, read-out: MIC P. aeruginosa WT PA14

Row | SMILES | MIC (E. coli ΔtolC; [1]) [µg/mL] | MIC (P. aeruginosa ΔmexAB; [2]) [µg/mL] | MIC (E. coli WT DSM-1116; [3]) [µg/mL] | MIC (P. aeruginosa WT PA14; [4]) [µg/mL] | MIC (S. aureus Newman; small panel, Tables 1a/1b) [µg/mL] | MIC (E. coli ΔtolC; read-out: MIC E. coli ΔtolC) [µg/mL] | MIC (P. aeruginosa ΔmexAB; read-out: MIC P. aeruginosa ΔmexAB) [µg/mL] | MIC (E. coli WT DSM-1116; DSM1116, 16 h) [µg/mL] | MIC (P. aeruginosa WT PA14; PA14, read-out: MIC P. aeruginosa WT PA14) [µg/mL] | MIC (S. aureus Newman) [µg/mL]
1 | CC(=O)Nc1ccc(C(=O)Nc2ccc(C(=O)N[C@@H](CC(N)=O)C(=O)Nc3ccc(C(=O)Nc4ccc(C(=O)Nc5ccc(C(=O)O)cc5)c(O)c4OC(C)C)cc3)cc2)cc1 [Compound 36, (S)-4-(4-(4-(2-(4-(4-acetamidobenzamido)benzamido)-4-amino-4-oxobutanamido)benzamido)-2-hydroxy-3-isopropoxybenzamido)benzoic acid] | 0.06 (≈ 0.0711 µM) | > 64 | 16 (≈ 19 µM) | > 64 | 64 (≈ 75.8 µM) |  |  |  |  | 
2 | CC(C)Oc1c(NC(=O)c2ccc(NC(=O)[C@H](CC(N)=O)NC(=O)c3ccc(NC(=O)c4ccccc4)cc3)cc2)ccc(C(=O)Nc2ccc(C(=O)O)cc2)c1O [Compound 38, (S)-4-(4-(4-(4-amino-2-(4-benzamidobenzamido)-4-oxobutanamido)benzamido)-2-hydroxy-3-isopropoxybenzamido)benzoic acid] |  |  |  |  |  | 0.5 (≈ 0.635 µM) | 2 (≈ 2.54 µM) | > 64 | > 64 | > 64
3 | CC(C)Oc1c(NC(=O)c2ccc(NC(=O)[C@H](CC(N)=O)NC(=O)c3ccc(NC(=O)c4ccc(F)cc4)cc3)cc2)ccc(C(=O)Nc2ccc(C(=O)O)cc2)c1O [Compound 39, (S)-4-(4-(4-(4-amino-2-(4-(4-fluorobenzamido)benzamido)-4-oxobutanamido)benzamido)-2-hydroxy-3-isopropoxybenzamido)benzoic acid] | 0.5 (≈ 0.621 µM) | 2 (≈ 2.49 µM) | 0.5 (≈ 0.621 µM) | > 64 | 2 (≈ 2.49 µM) |  |  |  |  | 
4 | CC(C)Oc1c(NC(=O)c2ccc(NC(=O)[C@H](CC(N)=O)NC(=O)c3ccc(NC(=O)c4ccc(N)cc4)cc3)cc2)ccc(C(=O)Nc2ccc(C(=O)O)cc2)c1O [Compound 40, (S)-4-(4-(4-(4-amino-2-(4-(4-aminobenzamido)benzamido)-4-oxobutanamido)benzamido)-2-hydroxy-3-isopropoxybenzamido)benzoic acid] | 32 (≈ 39.9 µM) | 4 (≈ 4.99 µM) | 2 (≈ 2.49 µM) | > 64 | > 64 |  |  |  |  | 
5 | CC(C)Oc1c(NC(=O)c2ccc(NC(=O)[C@H](CC(N)=O)NC(=O)c3ccc(NC(=O)c4cccc([N+](=O)[O-])c4)cc3)cc2)ccc(C(=O)Nc2ccc(C(=O)O)cc2)c1O [Compound 41, (S)-4-(4-(4-(4-amino-2-(4-(3-nitrobenzamido)benzamido)-4-oxobutanamido)benzamido)-2-hydroxy-3-isopropoxybenzamido)benzoic acid] | 0.25 (≈ 0.301 µM) | 0.5 (≈ 0.601 µM) | > 64 | > 64 | > 64 |  |  |  |  | 
6 | CC(C)Oc1c(NC(=O)c2ccc(NC(=O)[C@H](CC(N)=O)NC(=O)c3ccc(NC(=O)c4cccc(N)c4)cc3)cc2)ccc(C(=O)Nc2ccc(C(=O)O)cc2)c1O [Compound 42, (S)-4-(4-(4-(4-amino-2-(4-(3-aminobenzamido)benzamido)-4-oxobutanamido)benzamido)-2-hydroxy-3-isopropoxybenzamido)benzoic acid] | 2 (≈ 2.49 µM) | 4 (≈ 4.99 µM) | 32 (≈ 39.9 µM) | > 64 | > 64 |  |  |  |  | 
7 | CC(C)Oc1c(NC(=O)c2ccc(NC(=O)[C@H](CC(N)=O)NC(=O)c3ccc(NC(=O)c4ccccc4[N+](=O)[O-])cc3)cc2)ccc(C(=O)Nc2ccc(C(=O)O)cc2)c1O [Compound 43, (S)-4-(4-(4-(4-amino-2-(4-(2-nitrobenzamido)benzamido)-4-oxobutanamido)benzamido)-2-hydroxy-3-isopropoxybenzamido)benzoic acid] | 2 (≈ 2.4 µM) | > 64 | > 64 | > 64 | > 64 |  |  |  |  | 
8 | CC(C)Oc1c(NC(=O)c2ccc(NC(=O)[C@H](CC(N)=O)NC(=O)c3ccc(NC(=O)c4ccc(C(F)(F)F)cc4)cc3)cc2)ccc(C(=O)Nc2ccc(C(=O)O)cc2)c1O [Compound 45, (S)-4-(4-(4-(4-amino-4-oxo-2-(4-(4-(trifluoromethyl)benzamido)benzamido)butanamido)benzamido)-2-hydroxy-3-isopropoxybenzamido)benzoic acid] | ≤ 0.03 | > 64 | 0.5 (≈ 0.585 µM) | > 64 | 16 to 32 (≈ 18.7 to 37.4 µM) |  |  |  |  | 
9 | CC(C)Oc1c(NC(=O)c2ccc(NC(=O)[C@H](CC(N)=O)NC(=O)c3ccc(NC(=O)c4ccc(NC(N)=O)cc4)cc3)cc2)ccc(C(=O)Nc2ccc(C(=O)O)cc2)c1O [Compound 46, (S)-4-(4-(4-(4-amino-4-oxo-2-(4-(4-ureidobenzamido)benzamido)butanamido)benzamido)-2-hydroxy-3-isopropoxybenzamido)benzoic acid] | 0.03 (≈ 0.0355 µM) | 4 (≈ 4.73 µM) | 0.5 (≈ 0.592 µM) | > 64 | 64 (≈ 75.8 µM) |  |  |  |  | 
10 | CC(C)Oc1c(NC(=O)c2ccc(NC(=O)[C@H](CC(N)=O)NC(=O)c3ccc(NC(=O)c4ccc(NC(=O)c5ccc([N+](=O)[O-])cc5)cc4)cc3)cc2)ccc(C(=O)Nc2ccc(C(=O)O)cc2)c1O [Compound 47, (S)-4-(4-(4-(4-amino-2-(4-(4-(4-nitrobenzamido)benzamido)benzamido)-4-oxobutanamido)benzamido)-2-hydroxy-3-isopropoxybenzamido)benzoic acid] | > 64 | > 64 | 2 (≈ 2.1 µM) | > 64 | > 64 |  |  |  |  | 
11 | CC(C)Oc1c(NC(=O)c2ccc(NC(=O)[C@H](CC(N)=O)NC(=O)c3ccc(NC(=O)c4ccc([N+](=O)[O-])c(OC(C)C)c4O)cc3)cc2)ccc(C(=O)Nc2ccc(C(=O)O)cc2)c1O [Compound 48, (S)-4-(4-(4-(4-amino-2-(4-(2-hydroxy-3-isopropoxy-4-nitrobenzamido)benzamido)-4-oxobutanamido)benzamido)-2-hydroxy-3-isopropoxybenzamido)benzoic acid] | > 64 | > 64 | > 64 | > 64 | > 64 |  |  |  |  | 
12 | Cc1cc(C#N)ccc1C(=O)Nc1ccc(C(=O)N[C@@H](CC(N)=O)C(=O)Nc2ccc(C(=O)Nc3ccc(C(=O)Nc4ccc(C(=O)O)cc4)c(O)c3OC(C)C)cc2)cc1 [Compound 50, (S)-4-(4-(4-(4-amino-2-(4-(4-cyano-2-methylbenzamido)benzamido)-4-oxobutanamido)benzamido)-2-hydroxy-3-isopropoxybenzamido)benzoic acid] | 0.03 (≈ 0.0363 µM) | 2 (≈ 2.42 µM) | 0.5 (≈ 0.605 µM) | > 64 | 64 (≈ 77.5 µM) |  |  |  |  | 
13 | CC(C)Oc1c(NC(=O)c2ccc(NC(=O)[C@H](CC(N)=O)NC(=O)c3ccc(NC(=O)c4ccc(C#N)c(F)c4)cc3)cc2)ccc(C(=O)Nc2ccc(C(=O)O)cc2)c1O [Compound 51, (S)-4-(4-(4-(4-amino-2-(4-(4-cyano-3-fluorobenzamido)benzamido)-4-oxobutanamido)benzamido)-2-hydroxy-3-isopropoxybenzamido)benzoic acid] | ≤ 0.03 | 0.5 (≈ 0.603 µM) | 0.25 (≈ 0.301 µM) | 8 (≈ 9.64 µM) | 2 (≈ 2.41 µM) |  |  |  |  | 
14 | Cc1cc(C(=O)Nc2ccc(C(=O)N[C@@H](CC(N)=O)C(=O)Nc3ccc(C(=O)Nc4ccc(C(=O)Nc5ccc(C(=O)O)cc5)c(O)c4OC(C)C)cc3)cc2)ccc1C#N [Compound 52, (S)-4-(4-(4-(4-amino-2-(4-(4-cyano-3-methylbenzamido)benzamido)-4-oxobutanamido)benzamido)-2-hydroxy-3-isopropoxybenzamido)benzoic acid] | 0.03 (≈ 0.0363 µM) | 0.5 (≈ 0.605 µM) | 0.5 (≈ 0.605 µM) | 4 (≈ 4.84 µM) | 2 (≈ 2.42 µM) |  |  |  |  | 
15 | CC(C)Oc1c(NC(=O)c2ccc(NC(=O)[C@H](CC(N)=O)NC(=O)c3ccc(NC(=O)C(C)Oc4ccccc4)cc3)cc2)ccc(C(=O)Nc2ccc(C(=O)O)cc2)c1O (stereo partly drawn) [Compound 54, 4-(4-(4-((2S)-4-amino-4-oxo-2-(4-(2-phenoxypropanamido)benzamido)butanamido)benzamido)-2-hydroxy-3-isopropoxybenzamido)benzoic acid] | 4 (≈ 4.81 µM) | > 64 | > 64 | > 64 | > 64 |  |  |  |  | 
16 | CC(C)Oc1c(NC(=O)c2ccc(NC(=O)[C@H](CC(N)=O)NC(=O)c3ccc(NC(=O)c4ccncc4)cc3)cc2)ccc(C(=O)Nc2ccc(C(=O)O)cc2)c1O [Compound 55, (S)-4-(4-(4-(4-amino-2-(4-(isonicotinamido)benzamido)-4-oxobutanamido)benzamido)-2-hydroxy-3-isopropoxybenzamido)benzoic acid] | < 0.03 | 2 (≈ 2.54 µM) | 1 (≈ 1.27 µM) | > 64 | > 64 |  |  |  |  | 
